Test results: PubChem BioAssay AID1963830 (Molecular Pharmacology Branch, DTP, NCI, 2024)
Several values for one entry are separate records, joined by “and”; a condition that tells them apart may be missing. Equal values may be shown once.

Test system: 922993-354-T-J3-PDC complex spheroid viability
Test: Anticancer human tumor 922993-354-T-J3-PDC patient-derived endometrial carcinoma cell line growth inhibition [POLQ]
Conditions: for viability, T/C: stronger effect = lower value
Procedure: Multicellular complex tumor spheroid response to Polymerase (POL) inhibitors (novobiocin, ART-558, RP6685) in combination with a variety of drugs and investigational agents in selected tumor cell lines
The POL inhibitors (novobiocin, ART-558, and RP6685) were evaluated both individually and in combination with standard of care and investigational anticancer small molecules within a complex spheroid model of solid tumors. . Complex spheroids include a stromal component modeled by human endothelial cells (HUVEC) and fibroblasts modeled by human mesenchymal stem cells (MSCs). The concentration ranges selected for each drug and investigational agent were based upon clinically achievable concentrations if the clinical Cmax of the agent was known.
Compounds. The drugs and investigational agents: novobiocin (NSC847541), ART-558 (NSC835418), RP-6685 (NSC848927), peposertib (NSC802822), ceralasertib (NSC780249), elimusertib (NSC800525), camonsertib (NSC841442), AZD-1390 (NSC803789), olaparib (NSC753686), talazoparib (NSC767125), rucaparib (NSC756644), sotorasib (NSC818433), MRTX-1133 (NSC836407), SN-38 (NSC673596), topotecan (NSC609699), epotoside (NSC141540), doxorubicin (NSC123127), gemcitabine (NSC613327), 5-fluorouracil (NSC19893), paclitaxel (NSC125973), vemurafenib (NSC761431), MSA-2 (NSC828583), SN-011 (NSC837082), adavosertib (NSC754352), prexasertib (NSC758257), carboplatin (NSC241240) and oxaliplatin (NSC266046), were obtained from the National Cancer Institute (NCI) Developmental Therapeutics Program Chemical Repository (21). The FDA-approved anticancer drug set is available from the Developmental Therapeutics Program at https://dtp.cancer.gov/organization/dscb/obtaining/. […] The stock solutions were prepared in dimethyl sulfoxide (DMSO, Sigma-Aldrich, St. Louis, MO, cat. D2650), except for the platinum compounds which were prepared in saline (Quality Biological, Gaithersburg, MD, cat. 114-055-101), at 800-fold the tested concentration and stored at -70 degrees C prior to their use. All drugs and investigational agents were tested over a range starting from a high concentration at or near the clinical Cmax and decreasing in half-log increments. If the clinical Cmax for an agent had not been determined, the highest concentration tested was 10 microM, except for SN-38, which was tested at a high concentration of 1 microM.
Cell Culture. All cells were maintained in an incubator at 37 degrees C and 5% CO2 with 95% humidity. The PDC lines were cultured according to standard operating procedures established by the NCI PDMR (https://pdmr.cancer.gov). Table 3 of the manuscript, lists the cell lines along with the number of the three cell types plated to form the mct-spheroids and media for tumor cell growth. After thawing, all PDC lines, except 997537-175-T-J1-PDC and 415267-285-R-J2-PDC, were cultured in Matrigel-coated flasks prepared with a working solution of 1X Ham's F-12 nutrient mix, without supplementation (Thermo Fisher Scientific, cat. 11765054), 100 U/mL penicillin-streptomycin (Thermo Fisher Scientific, cat. 15140122), and 2.5% Matrigel (Corning Inc., Corning, NY, cat. 354248) for the first three passages. The two PDC lines 997537-175-T-J1-PDC and 415267-285-R-J2-PDC were cultured on uncoated flasks. The 857933-349-R-J2-PDC line was cultured in 6C/Colon 1B media containing advanced DMEM/F-12 (Thermo Fisher Scientific, cat. 12634028), 10 mM HEPES (Thermo Fisher Scientific, cat. 15630080), 1X GlutaMAX supplement (Thermo Fisher Scientific, cat. 35050061), 0.1 mg/mL primocin (InvivoGen, San Diego, CA, cat. ant-pm-2), 10% defined fetal bovine serum, heat inactivated (HyClone Laboratories Inc., Logan, UT, cat. SH30070.03HI), 50% L-WRN conditioned media (ATCC, cat. CRL-3276), 1.25 mM N-Acetyl-L-cysteine (Sigma-Aldrich, cat. A9165), 10 mM nicotinamide (Sigma-Aldrich, cat. N0636), 1X B-27 supplement (Thermo Fisher Scientific, cat. 17504044), 1X N-2 supplement (Thermo Fisher Scientific, cat. […]
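Note: spheroids exposed to the agents for one week.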
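Throughout, for viability, T/C: 100% = DMSO vehicle control wells.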

`CCc1cc2c(N3CCc4c(cc(Cn5ccnc5)cc4-c4cn(C)nc4C(F)(F)F)C3=O)ccnc2c(OC)n1` was tested, and the viability, T/C (compound 0.0316 µM) was 109% and 106% and 102%, the viability, T/C (compound 0.1 µM) was 94.3% and 98% and 103% and the viability, T/C (compound 0.316 µM) was 87.5% and 105% and 107%. The viability, T/C (compound 1 µM) was 107%, the viability, T/C (compound 3.16 µM) was 91.8% and 108% and 103% and the viability, T/C (compound 10 µM) was 80.9% and 97.6% and 101%. For the same compound, the IC50 (curve of compound) was over 10 µM.
`CCc1cc2c(N3CCc4c(cc(Cn5ccnc5)cc4-c4cn(C)nc4C(F)(F)F)C3=O)cc(C)nc2c(OC)n1` + Cc1cccc(N(C)C(=O)C2C(O)CCN2c2nc(C)cc(C(F)(F)F)c2C#N)c1 showed an IC50 (curve of first compound, second compound 0.0316 µM) of over 10 µM, an IC50 (curve of first compound, second compound 0.1 µM) of over 10 µM and an IC50 (curve of first compound, second compound 0.316 µM) of over 10 µM. It also gave an IC50 (curve of first compound, second compound 1 µM) of over 10 µM, an IC50 (curve of first compound, second compound 3.16 µM) of over 10 µM and an IC50 (curve of first compound, second compound 10 µM) of over 10 µM. The viability, T/C (second compound 0.0316 µM, first compound 0.0316 µM) was 101%, the viability, T/C (second compound 0.0316 µM, first compound 0.1 µM) was 105% and the viability, T/C (second compound 0.0316 µM, first compound 0.316 µM) was 109%. The viability, T/C (second compound 0.0316 µM, first compound 1 µM) was 107%, the viability, T/C (second compound 0.0316 µM, first compound 3.16 µM) was 102% and the viability, T/C (second compound 0.0316 µM, first compound 10 µM) was 91.7%. For the same compound, the viability, T/C (second compound 0.1 µM, first compound 0.0316 µM) was 109%, the viability, T/C (second compound 0.1 µM, first compound 0.1 µM) was 101% and the viability, T/C (second compound 0.1 µM, first compound 0.316 µM) was 108%. The viability, T/C (second compound 0.1 µM, first compound 1 µM) was 105%, the viability, T/C (second compound 0.1 µM, first compound 3.16 µM) was 106% and the viability, T/C (second compound 0.1 µM, first compound 10 µM) was 97%. For the same compound, the viability, T/C (second compound 0.316 µM, first compound 0.0316 µM) was 103%, the viability, T/C (second compound 0.316 µM, first compound 0.1 µM) was 103% and the viability, T/C (second compound 0.316 µM, first compound 0.316 µM) was 107%. For the same compound, the viability, T/C (second compound 0.316 µM, first compound 1 µM) was 108%, the viability, T/C (second compound 0.316 µM, first compound 3.16 µM) was 110% and the viability, T/C (second compound 0.316 µM, first compound 10 µM) was 98.7%. The viability, T/C (second compound 1 µM, first compound 0.0316 µM) was 102%, the viability, T/C (second compound 1 µM, first compound 0.1 µM) was 103% and the viability, T/C (second compound 1 µM, first compound 0.316 µM) was 107%. It also gave a viability, T/C (second compound 1 µM, first compound 1 µM) of 105%, a viability, T/C (second compound 1 µM, first compound 3.16 µM) of 108% and a viability, T/C (second compound 1 µM, first compound 10 µM) of 101%. It also gave a viability, T/C (second compound 3.16 µM, first compound 0.0316 µM) of 103%, a viability, T/C (second compound 3.16 µM, first compound 0.1 µM) of 104% and a viability, T/C (second compound 3.16 µM, first compound 0.316 µM) of 106%. It also gave a viability, T/C (second compound 3.16 µM, first compound 1 µM) of 105%, a viability, T/C (second compound 3.16 µM, first compound 3.16 µM) of 104% and a viability, T/C (second compound 3.16 µM, first compound 10 µM) of 99.7%. It also gave a viability, T/C (second compound 10 µM, first compound 0.0316 µM) of 93.4%, a viability, T/C (second compound 10 µM, first compound 0.1 µM) of 104% and a viability, T/C (second compound 10 µM, first compound 0.316 µM) of 105%. For the same compound, the viability, T/C (second compound 10 µM, first compound 1 µM) was 102%, the viability, T/C (second compound 10 µM, first compound 3.16 µM) was 107% and the viability, T/C (second compound 10 µM, first compound 10 µM) was 98.2%.
With `O=c1[nH]cc(F)c(=O)[nH]1` the viability, T/C (compound 0.0316 µM) was 92.3% and 104% and 112%, the viability, T/C (compound 0.1 µM) was 105% and 101% and 99.1% and the viability, T/C (compound 0.316 µM) was 95% and 101% and 95.6%. For the same compound, the viability, T/C (compound 1 µM) was 101% and 105% and 99.3%, the viability, T/C (compound 3.16 µM) was 30.5% and 79.5% and 27.9% and the viability, T/C (compound 10 µM) was 14.8% and 24.6% and 17.6%. For the same compound, the IC50 (curve of compound) was 2.27 µM and 5.89 µM and 2.21 µM.
For `Nc1ccc(C#CCN(C(=O)Cc2ncc(C(F)(F)F)cc2C(F)(F)F)c2ccc(F)cc2)nn1`, the viability, T/C (compound 0.0316 µM) was 103% [middle of 13 runs], the viability, T/C (compound 0.1 µM) was 102% [middle of 12 runs] and the viability, T/C (compound 0.316 µM) was 102% [middle of 13 runs]. The viability, T/C (compound 1 µM) was 101% [middle of 13 runs], the viability, T/C (compound 3.16 µM) was 101% [middle of 13 runs] and the viability, T/C (compound 10 µM) was 98% [middle of 13 runs]. For the same compound, the IC50 (compound alone, run of 11/06/2023) was over 10 µM.
